Results on 40 compounds are retold here after patent publication EP4768480A1, “ALKOXY THIOPHENE ACYL ARYLAMINE COMPOUNDS AND USE THEREOF” (priority 2024, dated 2025).

For the first test, the target named is T1, SMS2 (Homo sapiens, UniProt Q8NHU3).
T1 construct: CAO, Yu research team, National Protein Scientific Center (Shanghai); supplied by an outside laboratory, not a commercial vendor
T1 sequence (Q8NHU3 1-365): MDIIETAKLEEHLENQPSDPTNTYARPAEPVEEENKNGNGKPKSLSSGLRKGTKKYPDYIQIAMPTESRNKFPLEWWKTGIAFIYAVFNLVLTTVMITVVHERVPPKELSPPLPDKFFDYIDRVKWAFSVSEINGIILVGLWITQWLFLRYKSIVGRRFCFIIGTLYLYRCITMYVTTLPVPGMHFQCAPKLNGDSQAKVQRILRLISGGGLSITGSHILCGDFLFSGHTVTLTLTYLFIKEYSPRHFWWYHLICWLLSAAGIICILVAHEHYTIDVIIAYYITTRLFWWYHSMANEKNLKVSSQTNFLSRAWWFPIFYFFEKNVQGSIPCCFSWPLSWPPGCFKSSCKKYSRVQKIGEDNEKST
The test is described as follows: SMS2 inhibitory activity in vitro, HPLC fluorescence quantitative detection (C6-NBD-ceramide to C6-NBD-SM). It is filed as biochemical. As to conditions: 1 µM test compound; SMS2 pure enzyme; 37°C, 30 minutes; average of two measurements; read-out: Inhibition rate on SMS2 at C/µM 1. The text has this:
• 1. Electro-thermostatic water bath, from Shanghai Yiheng Technology Co., Ltd.); • 2. Vortex Mixer, with model ID of XW-80A, from Shanghai Jingke Industrial Co., Ltd.; • 3. […] High Performance Liquid Chromatography Agilent 1100, equipped with a quaternary pump, vacuum degassing, and FLD fluorescence detector, from Agilent Technologies, Palo Alto, CA, USA; • 5. HPLC column COSMOSIL 5C18-MS-II (4.6mm I.D. X 250mm); • 6. […] The organic solvents used in the present disclosure were purchased from Shanghai National Reagent Company, wherein methanol was pure chromatography; water was ultra-pure water which is filtrated by Milli-Q pump, deionized and ultra-filtrated with 0.22 µm membrane; and other biological consumables were purchased from domestic companies; • 8. Preparation of test compound solutions: each test compound was accurately weighed and dissolved in an appropriate volume of DMSO to prepare a 10 mmol/L stock solution. The stock solution was then diluted with an appropriate volume of DMSO to achieve the desired working concentration; • 9. SMS2 pure enzyme, DDM solution and buffer solution were provided by CAO, Yu research team from National Protein Scientific Center (Shanghai).
79 µl of the diluted enzyme solution were transferred into a 1.5 mL EP tube, 1 µl of inhibitor DMSO solution were added thereto, vortexing for 15 seconds, followed by standing at room temperature for 5 minutes. 20 µl of a mixed solution of DMPC and C6-NBD-ceramide were added, vortexing for 15 seconds, and incubated at 37°C for 30 minutes. 200 µl of anhydrous ethanol were added to quench the reaction, vortexing for 15 seconds. 200 µl of the reaction solution were taken out and stored at 4°C and avoided light for HPLC detection.
The peak area values of A(sm) and A(ceramide) in the HPLC chromatogram corresponding to C6-NBD-SM and C6-NBD-Ceramide in the DMSO group and inhibitor group samples were analyzed and recorded, and the inhibition rate of the test compound was calculated according to the following formula. Inhibition rate = (Peak area values of DMSO group−Peak area values of Inhibitor group)/(Peak area values of DMSO group) × 100% [formula]
For `Cc1cccc(C)c1COc1ccsc1C(=O)Nc1cccnc1` [1-60, 3-(2,6-dimethylbenzyloxy)-N-(pyridin-3-yl)thiophene-2-carboxamide], the inhibition at 1 µM turned out to be 78%.
Same read-out and setting: in the case of `O=C(Nc1nncs1)c1sccc1OCc1ccccc1` [12-3, 3-benzyloxy-N-(1,3,4-thiadiazol-2-yl)thiophene-2-carboxamide] it was -8%; in that of `Cc1cccc(COc2ccsc2C(=O)Nc2cccnc2)c1` [1-43, 3-(3-methylbenzyloxy)-N-(pyridin-3-yl)thiophene-2-carboxamide], 69%; in that of `O=C(Nc1cccnc1)c1sccc1OCc1cccc2cccnc12` [1-12, N-(pyridin-3-yl)-3-(quinolin-8-ylmethoxy)thiophene-2-carboxamide], 68%.
The same measure, in the same setting: for `O=C(Nc1cccnc1)c1sccc1OCc1cc(Cl)ccc1Cl` [1-89, 3-(2,5-dichlorobenzyloxy)-N-(pyridin-3-yl)thiophene-2-carboxamide] the value was 74%.
Regarding `CCCCCCCOc1cc(Cl)ccc1COc1ccsc1C(=O)Nc1cccnc1` [1-72, 3-(4-chloro-2-(heptyloxy)benzyloxy)-N-(pyridin-3-yl)thiophene-2-carboxamide], the inhibition at 1 µM is 90%.
The same measure, in the same setting: in the case of `CCCCCCOc1c(Cl)cccc1COc1ccsc1C(=O)Nc1cccnc1` [1-80, 3-(3-chloro-2-(hexyloxy)benzyloxy)-N-(pyridin-3-yl)thiophene-2-carboxamide] it was 97%; in that of `CCOC(=O)c1ccccc1COc1ccsc1C(=O)Nc1cccnc1` [1-84], 63%.
Take `O=C(Nc1cccnc1)c1sccc1OCc1c2ccccc2cc2ccccc12` [1-13, 3-(anthracen-9-ylmethoxy)-N-(pyridin-3-yl)thiophene-2-carboxamide]: the inhibition at 1 µM is 50%.
On the same count and under the same terms, in the case of `O=C(Nc1cccnc1)c1cscc1OCc1ccccc1` [1-100, 4-(benzyloxy)-N-(pyridin-3-yl)thiophene-3-carboxamide] it was 60%; in that of `O=C(Nc1ccc2c(c1)Cc1ccccc1-2)c1sccc1OCc1ccccc1` [12-7, 3-(benzyloxy)-N-(9H-fluoren-2-yl)thiophene-2-carboxamide], -16%; in that of `O=C(Nc1ccc(F)nc1)c1sccc1OCc1ccccc1` [12-13], 9%.
`O=C(Nc1ccc2c(c1)oc1ccccc12)c1sccc1OCc1ccccc1` [12-6, 3-(benzyloxy)-N(dibenzo[b,d]furan-3-yl)thiophene-2-carboxamide]: the inhibition at 1 µM is -5%.
The same measure, in the same setting: for `O=C(Nc1cccnc1)c1sccc1OCc1cc(O)ccc1Cl` [1-24, 3-(2-chloro-5-hydroxybenzyloxy)-N-(pyridin-3-yl)thiophene-2-carboxamide] the value was 78%.
Still for that read-out and setting: for `O=C(Nc1cccnc1)c1sccc1OCc1ccccc1I` [1-87, 3-(yloxy)-N-(pyridin-3-yl)thiophene-2-carboxamide] the value was 82%.
The same measure, in the same setting: for `O=C(Nc1cccnc1)c1sccc1OCc1ccccc1OCCCCCl` [1-75, 3-(2-(4-chlorobutoxy)benzyloxy)-N-(pyridin-3-yl)thiophene-2-carboxamide] the value was 97%; for `O=C(Nc1cc(Cl)cc(Cl)n1)c1sccc1OCc1ccccc1` [1-20, 3-benzyloxy-N-(4,6-Dichloropyridin-2-yl)thiophene-2-carboxamide], 50%; for `O=C(Nc1cccnc1)c1sccc1OCc1c(F)c(F)cc(F)c1F` [1-67, 3-(2,3,5,6-tetrafluorobenzyloxy)-N-(pyridin-3-yl)thiophene-2-carboxamide], 67%.
In the case of `CCc1ccccc1COc1ccsc1C(=O)Nc1cccnc1` [1-81, 3-(2-ethylbenzyloxy)-N-(pyridin-3-yl)thiophene-2-carboxamide], the inhibition at 1 µM worked out at 73%.
On the same count and under the same terms, for `Cc1nc(OCc2ccccc2)c(C(=O)Nc2cccnc2)s1` [12-9, 4-(benzyloxy)-2-methyl-N-(pyridin-3-yl)thiazole-5-carboxamide] the value was -2%.
On the same count and under the same terms, in the case of `O=C(Nc1cc(C(F)(F)F)ccn1)c1sccc1OCc1ccccc1` [1-5, 3-benzyloxy-N-(4-(trifluoromethyl)pyridin-2-yl)thiophene-2-carboxamide] it was 47%.

The same test, now with this note: 10 µM test compound; SMS2 pure enzyme; 37°C, 30 minutes; average of two measurements; read-out: Inhibition rate on SMS2 at C/µM 10.
Consider `O=C(Nc1ccnnc1)c1sccc1OCc1ccccc1` [12-2, 3-benzyloxy-N-(pyridazin-4-yl)thiophene-2-carboxamide], for which the inhibition at 10 µM was determined as 23%.
On the same count and under the same terms, for `O=C(Nc1ccc(C(F)(F)F)nc1)c1sccc1OCc1ccccc1` [12-14] the value was 10%; for `O=C(Nc1cccnc1)c1sccc1OCc1ccccc1N1C(=O)c2ccccc2C1=O` [12-5, 3-(2-(1,3-dioxoisoindolin-2-yl)benzyloxy)-N-(pyridin-3-yl)thiophene-2-carboxamide], 4%.
As for `O=C(Nc1cccnc1)c1sccc1OCc1c(Cl)cccc1Cl` [1-3, 3-(2,6-dichlorobenzyloxy)-N-(pyridin-3-yl)thiophene-2-carboxamide], the inhibition at 10 µM turned out to be 97%.
With `O=C(Nc1ccccc1)c1sccc1OCc1ccccc1` [1-7, 3-benzyloxy-N-phenylthiophen-2-carboxamide], the inhibition at 10 µM came out at 50%.
On to `CCCOc1ccc(OCCC)c(COc2ccsc2C(=O)Nc2cccnc2)c1` [1-93, 3-(2,5-dipropoxybenzyloxy)-N-(pyridin-3-yl)thiophene-2-carboxamide], for which the inhibition at 10 µM stood at 50%.
On the same count and under the same terms, for `O=C(Nc1cccnc1)c1sccc1OCc1cccc(OC(F)(F)F)c1` [1-55, 3-(3-(trifluoromethoxy)benzyloxy)-N-(pyridin-3-yl)thiophene-2-carboxamide] the value was 65%; for `Cc1ncccc1NC(=O)c1sccc1OCc1ccccc1` [1-68, 3-benzyloxy-N-(2-methylpyridin-3-yl)thiophene-2-carboxamide], 50%.
The same measure, in the same setting: for `Cc1ccncc1NC(=O)c1sccc1OCc1ccccc1` [1-69, 3-benzyloxy-N-(4-methylpyridin-3-yl)thiophene-2-carboxamide] the value was 65%.
Same read-out and setting: in the case of `N#Cc1cccc(COc2ccsc2C(=O)Nc2cccnc2)c1` [1-51, 3-(3-cyanobenzyloxy)-N-(pyridin-3-yl)thiophene-2-carboxamide] it was 60%; in that of `N#Cc1ccccc1COc1ccsc1C(=O)Nc1cccnc1` [1-50, 3-(2-cyanobenzyloxy)-N-(pyridin-3-yl)thiophene-2-carboxamide], 66%.
For the compound `O=C(Nc1cccnc1)c1sccc1OCc1ccc(OC(F)(F)F)cc1` [1-54, 3-(4-(trifluoromethoxy)benzyloxy)-N-(pyridin-3-yl)thiophene-2-carboxamide], the inhibition at 10 µM is 57%.
On the same count and under the same terms, in the case of `O=C(Nc1cccnc1)c1sccc1OCc1ccc2ccccc2c1` [1-11, 3-(naphthalen-2-ylmethoxy)-N-(pyridin-3-yl)thiophene-2-carboxamide] it was 50%; in that of `Cc1cncc(NC(=O)c2sccc2OCc2ccccc2)c1` [1-83, 3-benzyloxy-N-(5-methylpyridin-3-yl)thiophene-2-carboxamide], 50%; in that of `O=C(Nc1cccnc1)c1ccncc1OCc1ccccc1` [12-17, 3-benzyloxy-N-(pyridin-3-yl)pyridin-4-carboxamide], 27%.
The same measure, in the same setting: for `O=C(O)CCCCCOc1ccccc1COc1ccsc1C(=O)Nc1cccnc1` [1-17, 6-(2-[(2-(pyridin-3-ylcarbamoyl)thiophene-3-yl)oxymethyl]phenoxy)hexanoic acid] the value was 50%.
On the same count and under the same terms, in the case of `CCCCCCCCOc1ccsc1C(=O)Nc1cccnc1` [1-96, 3-octyloxy-N-(pyridin-3-yl)thiophene-2-carboxamide] it was 50%; in that of `COC(=O)c1ccccc1COc1ccsc1C(=O)Nc1cccnc1` [1-22, 2-[(2-(pyridin-3-ylcarbamoyl)thiophene-3-yl)oxymethyl]methyl benzoate], 81%.
With `O=C(Nc1cccnc1)c1sccc1OCc1ccccc1[N+](=O)[O-]` [1-21, 3-(2-nitrobenzyloxy)-N-(pyridin-3-yl)thiophene-2-carboxamide], the inhibition at 10 µM was 93%.
